# Test results from paper PMC11231114 (EJNMMI Research, 2024).
# Assays:
# [1] = tested on: Wistar rats; test: Extended single dose toxicity study, i.v. 2 mg/kg b.w.
# Experimental: Throughout the experiment, the animals’ behaviour was observed and their weight recorded.
# The normality distribution was tested with Shapiro-Wilk test. For homogeneity of variance Brown-Forsythe test has been used. For normal distribution and homogeneous variances results, Student’s t-test was used. In the absence of normal distribution, Mann-Whitney test was used. In the case of non-homogenous variance, Cochrane-Cox test was used.
# [2] = tested on: dog hepatocytes; test: Metabolite profiling in cryopreserved hepatocytes (in vitro MetID); type: in vitro ADME; details: for Relative abundance of metabolites calculated as % of parent (SYN2), Dog: 1 µM SYN2, 37 °C
# Experimental: (§1) The metabolite profiling and characterization experiment of SYN2 molecule (in vitro MetID, Admescope) was conducted to evaluate potential metabolic pathways. In order to characterize the metabolites of SYN2, the compound was incubated in cryopreserved rat, dog and human hepatocytes. Prior to the incubation, the hepatocytes were thawed, suspended in Williams medium E and then centrifuged to receive a target density of about 1 million cells/ml. A SYN2 solution of 1 µM was then added to the hepatocyte suspension and incubated at 37 °C for 0, 30 and 60 min. The incubations were stopped by the addition of acetonitrile, then frozen and centrifuged to remove precipitated proteins. Supernatants were then analysed with ultra-performance liquid chromatography (UPLC) and high-resolution mass spectrometry (HRMS).
# (§2) Compound Discoverer (CD) was used for data mining with manual confirmation for metabolite profiling and characterization.
# [3] = tested on: rat hepatocytes; test: as above; type: in vitro ADME; details: for Relative abundance of metabolites calculated as % of parent (SYN2), Rat: 1 µM SYN2, 37 °C
# Experimental: as §1, §2
# [4] = tested on: human hepatocytes; test: as above; type: in vitro ADME; details: for Relative abundance of metabolites calculated as % of parent (SYN2), Human: 1 µM SYN2, 37 °C
# Experimental: as §1, §2
# [5] = target: hERG (Homo sapiens, UniProt Q12809); test: Functional assay at several concentrations; type: biochemical; details: antagonistic effect
# Experimental: (§3) IC50 values from pharmacodynamics assessment were determined by a non-linear, least squares regression analysis using MathIQ™ (ID Business Solutions Ltd., UK). […] Where presented, the Hill coefficient (nH), defining the slope of the competitive binding curve, was calculated using MathIQ™.
# [6] = target: T1, muscarinic M2 (Homo sapiens, UniProt P08172); test: Functional assay at several concentrations; type: biochemical; details: antagonistic effect
# T1 sequence (P08172 1-466): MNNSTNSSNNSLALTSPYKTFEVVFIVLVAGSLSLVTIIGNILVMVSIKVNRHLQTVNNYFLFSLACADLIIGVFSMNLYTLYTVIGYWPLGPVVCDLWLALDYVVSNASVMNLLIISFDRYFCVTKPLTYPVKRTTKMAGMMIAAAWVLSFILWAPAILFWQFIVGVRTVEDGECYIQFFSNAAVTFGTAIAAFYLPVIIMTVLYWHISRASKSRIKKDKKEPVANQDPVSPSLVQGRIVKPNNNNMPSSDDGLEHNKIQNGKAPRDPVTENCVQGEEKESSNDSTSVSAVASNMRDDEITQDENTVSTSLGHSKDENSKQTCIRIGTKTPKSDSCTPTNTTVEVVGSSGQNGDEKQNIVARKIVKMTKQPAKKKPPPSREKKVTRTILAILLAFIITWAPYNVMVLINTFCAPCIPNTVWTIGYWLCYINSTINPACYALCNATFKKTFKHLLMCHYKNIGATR
# Experimental: as §3
# [7] = target: T2, potassium channel hERG (Homo sapiens, UniProt Q12809); test: Radioligand binding assay (LeadProfilingScreen SafetyScreen panel); details: 1 µM
# T2 construct: purchased Eurofins Panlabs, Inc. PP68
# Experimental: (§4) The possibility of pharmacological interactions of SYN2 was assessed in vitro in radioligand binding assays on key pharmacological target classes including GPCRs, drug transporters, ion channels, nuclear receptors and enzymes (LeadProfilingScreen SafetyScreen, PP68, Panel of 68 receptors, Eurofins Panlabs, Inc.). There was only one SYN2 concentration of 1 µM used in the study.
# (§5) IC50 values from pharmacodynamics assessment were determined by a non-linear, least squares regression analysis using MathIQ™ (ID Business Solutions Ltd., UK). Where inhibition constants (Ki) are presented, the Ki values were calculated using the equation of Cheng and Prusoff using the observed IC50 of the tested compound, the concentration of radioligand employed in the assay, and the historical values for the KD of the ligand (obtained experimentally at Eurofins Panlabs, Inc.). Where presented, the Hill coefficient (nH), defining the slope of the competitive binding curve, was calculated using MathIQ™.
# [8] = target: T3, muscarinic M2 acetylcholine receptor (Homo sapiens, UniProt P08172); test: as above; details: 1 µM
# T3 construct: purchased Eurofins Panlabs, Inc. PP68
# T3 sequence (P08172 1-466): T1 sequence (P08172 1-466)
# Experimental: as §4, §5
# [9] = target: T4, muscarinic acetylcholine M1 receptor (Homo sapiens, UniProt P11229); test: as above; details: 1 µM
# T4 construct: purchased Eurofins Panlabs, Inc. PP68
# T4 sequence (P11229 1-460): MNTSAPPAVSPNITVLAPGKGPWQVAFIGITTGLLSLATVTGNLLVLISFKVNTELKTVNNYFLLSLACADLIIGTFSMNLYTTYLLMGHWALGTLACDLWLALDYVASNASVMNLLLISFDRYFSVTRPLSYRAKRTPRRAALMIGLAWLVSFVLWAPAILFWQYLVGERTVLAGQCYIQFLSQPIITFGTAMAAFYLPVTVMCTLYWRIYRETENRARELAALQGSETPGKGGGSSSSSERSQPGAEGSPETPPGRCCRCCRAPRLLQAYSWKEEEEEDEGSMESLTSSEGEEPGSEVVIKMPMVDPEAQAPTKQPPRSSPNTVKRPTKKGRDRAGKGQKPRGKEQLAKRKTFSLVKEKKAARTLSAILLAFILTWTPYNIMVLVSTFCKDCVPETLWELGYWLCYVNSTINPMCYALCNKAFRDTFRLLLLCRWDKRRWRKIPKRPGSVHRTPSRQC
# Experimental: as §4, §5
# [10] = Plasma pharmacokinetics of non-radioactive SYN2, single i.v. 2 mg/kg, LC-MS/MS; type: in vivo, Wistar rats
# Experimental: The pharmacokinetic study was also conducted using non-radioactive reference standard of [^18F]SYN2 after a single i.v. administration at a dose of 2 mg/kg in rats. Blood samples of about 0.5 ml were collected in K3-EDTA tubes at pre-dose time and 4 min, 15 min, 30 min, 60 min, 4 h, and 24 h after injection (three rats were used at each time point, each rat was bled twice). Blood samples were then centrifuged at approx. 3270 g at 5 ± 3 °C for 10 min to extract plasma, divided in two aliquots and analysed (54 plasma samples in total). The concentrations of SYN2 were determined according to a LC-MS/MS validated method according to the Guidance for Industry (FDA) and Guidance on Validation of Bioanalytical Methods (EMA).
# [11] = Expected human Cmax after body surface area correction; details: read-out: expected Cmax, proposed maximum limit dose of 100 µg (2 µg/kg for a 50-kg patient)
# [12] = tested on: GPCRs, drug transporters, ion channels, nuclear receptors and enzymes; test: Radioligand binding assays, remaining 65 assays of the panel of 68; details: 1 µM
# Experimental: as §4, §5
# [13] = clinical examinations, 2 mg/kg b.w. i.v., treated vs control
# [14] = clinical-chemical examinations, 2 mg/kg b.w. i.v., treated vs control
# [15] = post mortem examination, 2 mg/kg b.w. i.v., treated vs control
# Sequence of hERG (Q12809 whole entry): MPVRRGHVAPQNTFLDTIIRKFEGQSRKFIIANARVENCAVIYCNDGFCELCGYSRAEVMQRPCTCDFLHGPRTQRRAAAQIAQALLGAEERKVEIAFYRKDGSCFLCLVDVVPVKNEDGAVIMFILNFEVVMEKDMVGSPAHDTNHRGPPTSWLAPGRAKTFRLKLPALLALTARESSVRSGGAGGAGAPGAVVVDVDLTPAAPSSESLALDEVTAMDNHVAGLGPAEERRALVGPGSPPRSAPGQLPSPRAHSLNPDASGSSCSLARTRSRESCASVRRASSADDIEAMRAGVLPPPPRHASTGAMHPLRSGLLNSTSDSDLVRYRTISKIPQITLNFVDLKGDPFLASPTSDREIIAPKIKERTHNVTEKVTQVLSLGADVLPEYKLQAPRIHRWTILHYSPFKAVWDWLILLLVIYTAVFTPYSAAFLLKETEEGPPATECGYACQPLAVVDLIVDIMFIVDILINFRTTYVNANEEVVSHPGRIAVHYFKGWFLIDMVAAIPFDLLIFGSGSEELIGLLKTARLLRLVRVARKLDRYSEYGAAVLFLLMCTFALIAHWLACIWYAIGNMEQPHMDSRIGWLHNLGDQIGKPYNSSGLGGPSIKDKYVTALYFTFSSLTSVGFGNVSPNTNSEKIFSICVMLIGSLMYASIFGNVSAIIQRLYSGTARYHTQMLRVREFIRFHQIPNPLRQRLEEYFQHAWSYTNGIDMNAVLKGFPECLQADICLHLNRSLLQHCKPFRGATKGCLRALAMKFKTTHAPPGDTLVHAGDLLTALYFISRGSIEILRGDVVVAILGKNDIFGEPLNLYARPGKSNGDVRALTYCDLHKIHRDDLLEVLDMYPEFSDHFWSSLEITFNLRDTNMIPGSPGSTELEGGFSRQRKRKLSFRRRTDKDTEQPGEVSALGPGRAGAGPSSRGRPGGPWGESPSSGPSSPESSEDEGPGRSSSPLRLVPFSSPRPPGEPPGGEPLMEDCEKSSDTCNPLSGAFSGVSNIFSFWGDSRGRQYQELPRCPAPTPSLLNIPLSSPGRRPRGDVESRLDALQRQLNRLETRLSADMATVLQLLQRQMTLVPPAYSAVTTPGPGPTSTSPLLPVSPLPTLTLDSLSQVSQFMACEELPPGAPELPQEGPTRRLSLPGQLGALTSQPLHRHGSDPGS
# T2 sequence (Q12809 whole entry): as above
structure (smiles),measurement,setting,value
CN(C)c1ccc2cc3ccc(N(C)C)cc3[n+](CCF)c2c1 [SYN2],Body weight,[1]; [13],-
same,Clinical observations,[1]; [13],-
same,Mortality,[1]; [13],-
same,Biochemical investigations,[1]; [14],+
same,Enzymatic investigations,[1]; [14],+
same,Haematological investigations,[1]; [14],-
same,Gross examination,[1]; [15],+
same,Histopathological examinations,[1]; [15],+
same,Weight of internal organs,[1]; [15],+
same,Tolerability in the toxicological study,"[1]; single i.v. 2 mg/kg b.w., Wistar rats",well-tolerated
same,No Observed Adverse Effect Level (NOAEL),"[1]; single i.v. dose, Wistar rats",2 mg/kg
same,"Relative abundance of metabolites calculated as % of parent (SYN2), Dog",[2]; 30 min,100 % of parent
same,"Relative abundance of metabolites calculated as % of parent (SYN2), Dog",[2]; 60 min,100 % of parent
same,unchanged parent remaining,"[2]; after 60 min, dog hepatocytes",5%
same,"Relative abundance of metabolites calculated as % of parent (SYN2), Rat",[3]; 30 min,100 % of parent
same,"Relative abundance of metabolites calculated as % of parent (SYN2), Rat",[3]; 60 min,100 % of parent
same,unchanged parent remaining,"[3]; after 60 min, rat hepatocytes",32%
same,"Relative abundance of metabolites calculated as % of parent (SYN2), Human",[4]; 30 min,100 % of parent
same,"Relative abundance of metabolites calculated as % of parent (SYN2), Human",[4]; 60 min,100 % of parent
same,unchanged SYN2 remaining,"[4]; after 60 min, human hepatocytes",70%
same,IC50,[5],~1000 nM
same,IC50,[6],~1000 nM
same,inhibition,[7],57%
same,inhibition,[8],68%
same,inhibition,[9],58%
same,AUCt,[10]; rat plasma,73.75 ng·h/mL
same,Clast,[10]; rat plasma,8.95 ng/mL
same,Cmax,[10]; rat plasma,368.67 ng/mL
same,Tmax,[10]; rat plasma,4.2 min
same,Vz,[10]; rat plasma,0.99 L/kg
same,Cl,[10]; rat plasma clearance,43.2 mL/min/kg
same,T½λz,"[10]; terminal half-life, rat plasma",15.6 min
same,Cmax,[11],1.1 nM
same,"mean response, remaining 65 assays",[12],7.63%
same,"median response, remaining 65 assays",[12],4%
